In US4965272A, “Antimicrobial compound and compositions particularly effective against candida albicans” (priority 1988, dated 1990):
Converted amounts (≈) assume the structure as drawn.

How the values were obtained:
Candida albicans [1] = test: in vivo testing, disseminated infection of Candida albicans in outbred mice
Excerpt: In the in vivo testing of the inventive compound and compositions, outbred mice were used. A disseminated infection of Candida albicansin the test animals was achieved by intravenous injection of 0.5 to 1×10^6 CFU of the pathogen. The organism is rapidly cleared from the blood and most tissues, except the kidney which is the primary target organ for the disseminated infection in mice. It is known than an inoculum of 0.5×10^6 CFU will cause death of outbred mice within 10-14 days due to disseminated infection if untreated. The vehicle used for administering the compound of the invention was a mixture consisting of 50% USP water, 40% propylene glycol and 10% absolute ethonol.

[2] = humans, under varying conditions; cited from earlier work
Candida albicans 10231 = test: MIC, twofold serial broth dilution assay; format: cell-based; conditions: ATCC10231; Candida albicans ATCC 10231; 24 and 48 hours at 37°
Description: (§1) Candida albicansNIH B311 used to induce experimental disseminated candidiasis was used for the initial qualitative evaluation of anticandidal activity. The organism was grown in Sabouraud-dextrose broth (SDB) for 14 hours at 37°, at which time the cells were harvested by centrifugation (4°, 2000 rpm, 3 min). After centrifugation, the cells were washed and suspended in sterile 0.9% saline to give a final concentration of […] colony forming units (CFU) per ml (adjusted using a hemocytometer). Culture plates (15×100 mm) for the qualitative assay were prepared from 25 ml of Sabouraud-dextrose agar. Using sterile cotton swabs, the plates were streaked with the suspension ([…] of Candida albicansB311. Cylindrical plugs were removed from the agar plates by means of a sterile cork borer to produce wells with a diameter of approximately 11 mm. To the well was added 100 μl of solution or suspension of an extract, fraction, or pure compound. Crude extracts and fractions were tested at a concentration of 20 mg/ml, whereas pure compounds were tested at 1 mg/ml. When solvents other than H2 O, EtOH, MeOH, DMSO, DMF, or Me2 CO were required to dissolve extracts or compounds, solvent blanks were included. Anticandidal activity was recorded as the width (in mm) of the zone of inhibition following incubation of the plates at 37° for 24 hours. The antifungal agents amphotericin-B and ketoconazole were included as standards in each assay.
(§2) The method used to determine the minimum inhibitory concentration (MIC) of the inventive compound was a twofold serial broth dilution assay in yeast nitrogen broth. In addition to Candida albicansB311, the MIC values for eupolauridine were also determined for two additional strains of Candida albicans: ATCC 10231 and a clinical isolate, designated WH. The inventive compound was initially tested using a concentration of 100 μg/ml in the first tube. The compound was added to sterile Sabouraud-dextrose broth as a solution in DMSO. The inoculum for the MIC determination was prepared as described for qualitative evaluation. […]

Candida albicans B311 = test: MIC, twofold serial broth dilution assay; format: cell-based; conditions: 24 and 48 hours at 37°
Description: as §1, §2

Candida albicans WH = test: MIC, twofold serial broth dilution assay; format: cell-based; conditions: Candida albicans clinical isolate WH; 24 and 48 hours at 37°
Description: as §1, §2

[3] = system: Cryptococcus neoformans 32264; test: MIC, twofold serial broth dilution assay; format: cell-based
Aspergillus flavus 9170 = test: MIC, twofold serial broth dilution assay; format: cell-based
[4] = system: Aspergillus fumigatus 26934; test: MIC, twofold serial broth dilution assay; format: cell-based
[5] = system: Trichophyton mentagrophytes 9972; test: MIC, twofold serial broth dilution assay; format: cell-based
[6] = system: Saccharomyces cerevisiae 9763; test: MIC, twofold serial broth dilution assay; format: cell-based
Candida albicans [7] = test: anticandidal activity, agar-well diffusion assay (zone of inhibition); format: cell-based; conditions: three test strains of Candida albicans
Description: In vitro evaluation of the anticandidal activity of the inventive compound and compositions was carried out using the agar-well diffusion assay as follows:
Candida albicansNIH B311 used to induce experimental disseminated candidiasis was used for the initial qualitative evaluation of anticandidal activity. The organism was grown in Sabouraud-dextrose broth (SDB) for 14 hours at 37°, at which time the cells were harvested by centrifugation (4°, 2000 rpm, 3 min). After centrifugation, the cells were washed and suspended in sterile 0.9% saline to give a final concentration of […] colony forming units (CFU) per ml (adjusted using a hemocytometer). Culture plates (15×100 mm) for the qualitative assay were prepared from 25 ml of Sabouraud-dextrose agar. […] Anticandidal activity was recorded as the width (in mm) of the zone of inhibition following incubation of the plates at 37° for 24 hours. […]

SMILES: C[C@@H]1[C@H](O)[C@@H](C)/C=C/C=C/C=C/C=C/C=C/C=C/C=C/[C@H](O[C@@H]2O[C@H](C)[C@@H](O)[C@H](N)[C@@H]2O)C[C@@H]2O[C@](O)(C[C@@H](O)C[C@@H](O)[C@H](O)CC[C@@H](O)C[C@@H](O)CC(=O)O[C@H]1C)C[C@H](O)[C@H]2C(=O)O [Amphotericin-B, amphotericin-B, reference compound]
- Number dead/Total (Candida albicans [1]; 2.5 mg/kg, day 1): 0/10
- Number dead/Total (Candida albicans [1]; 2.5 mg/kg, day 2): 0/10
- Number dead/Total (Candida albicans [1]; 2.5 mg/kg, day 3): 0/10
- Number dead/Total (Candida albicans [1]; 2.5 mg/kg, day 4): 0/10
- Number dead/Total (Candida albicans [1]; 2.5 mg/kg, day 5): 0/10
- Number dead/Total (Candida albicans [1]; 2.5 mg/kg, day 6): 1/10
- Number dead/Total (Candida albicans [1]; 2.5 mg/kg, day 7): 2/10
- Number dead/Total (Candida albicans [1]; 2.5 mg/kg, day 8): 2/10
- Number dead/Total (Candida albicans [1]; 2.5 mg/kg, day 9): 4/10
- Number dead/Total (Candida albicans [1]; 2.5 mg/kg, day 10): 4/10
- side effects [2]: fever, anorexia, nausea and vomiting, diarrhea, muscle and joint pain, phlebitis and thiophlebitis, anemia, abnormal renal function, anuria, cardiovascular distress, hypertension and hypotension

SMILES: c1ccc2c(c1)-c1nccc3ccnc-2c13 [Eupolauridine, eupolauridine]
- MIC (Candida albicans 10231): 1.56 µg/mL (≈ 7.64 µM)
- MIC (Candida albicans B311): 1.56 µg/mL (≈ 7.64 µM)
- MIC (Candida albicans WH): 1.56 µg/mL (≈ 7.64 µM)
- MIC [3]: 1.56 µg/mL (≈ 7.64 µM)
- MIC (Aspergillus flavus 9170): 6.25 µg/mL (≈ 30.6 µM)
- MIC [4]: 6.25 µg/mL (≈ 30.6 µM)
- MIC [5]: 1.56 µg/mL (≈ 7.64 µM)
- MIC [6]: 3.12 µg/mL (≈ 15.3 µM)
- Number dead/Total (Candida albicans [1]; 2 mg/kg, day 1): 0/10
- Number dead/Total (Candida albicans [1]; 2 mg/kg, day 2): 0/10
- Number dead/Total (Candida albicans [1]; 2 mg/kg, day 3): 0/10
- Number dead/Total (Candida albicans [1]; 2 mg/kg, day 4): 0/10
- Number dead/Total (Candida albicans [1]; 2 mg/kg, day 5): 0/10
- Number dead/Total (Candida albicans [1]; 2 mg/kg, day 6): 1/10
- Number dead/Total (Candida albicans [1]; 2 mg/kg, day 7): 3/10
- Number dead/Total (Candida albicans [1]; 2 mg/kg, day 8): 4/10
- Number dead/Total (Candida albicans [1]; 2 mg/kg, day 9): 4/10
- Number dead/Total (Candida albicans [1]; 2 mg/kg, day 10): 7/10
- Number dead/Total (Candida albicans [1]; 7 mg/kg, day 1): 0/10
- Number dead/Total (Candida albicans [1]; 7 mg/kg, day 2): 0/10
- Number dead/Total (Candida albicans [1]; 7 mg/kg, day 3): 2/10
- Number dead/Total (Candida albicans [1]; 7 mg/kg, day 4): 2/10
- Number dead/Total (Candida albicans [1]; 7 mg/kg, day 5): 2/10
- Number dead/Total (Candida albicans [1]; 7 mg/kg, day 6): 3/10
- Number dead/Total (Candida albicans [1]; 7 mg/kg, day 7): 3/10
- Number dead/Total (Candida albicans [1]; 7 mg/kg, day 8): 3/10
- Number dead/Total (Candida albicans [1]; 7 mg/kg, day 9): 4/10
- Number dead/Total (Candida albicans [1]; 7 mg/kg, day 10): 7/10
- animals survived (Candida albicans [1]; 20 mg/kg body weight, 10 days): 50%
- survival compared with amphotericin-B (Candida albicans [1]; 20 mg/kg body weight, 10 days): not statistically significantly different from the results with amphotericin-B
- Number dead/Total (Candida albicans [1]; 20 mg/kg, day 1): 0/10
- Number dead/Total (Candida albicans [1]; 20 mg/kg, day 2): 0/10
- Number dead/Total (Candida albicans [1]; 20 mg/kg, day 3): 0/10
- Number dead/Total (Candida albicans [1]; 20 mg/kg, day 4): 0/10
- Number dead/Total (Candida albicans [1]; 20 mg/kg, day 5): 0/10
- Number dead/Total (Candida albicans [1]; 20 mg/kg, day 6): 0/10
- Number dead/Total (Candida albicans [1]; 20 mg/kg, day 7): 1/10
- Number dead/Total (Candida albicans [1]; 20 mg/kg, day 8): 3/10
- Number dead/Total (Candida albicans [1]; 20 mg/kg, day 9): 3/10
- Number dead/Total (Candida albicans [1]; 20 mg/kg, day 10): 5/10
- zone of inhibition (Candida albicans [7]): remarkable zone of inhibition
